Consider 32 compounds from ChEMBL document CHEMBL4808241, “Synthesis and biological evaluation of 1,6-bis-triazole-2,3,4-tri-O-benzyl-α-d-glucopyranosides as a novel α-glucosidase inhibitor in the treatment of Type 2 diabetes” (Bioorg Med Chem Lett, 2021).

Calls of active or inactive are those of the source. The calls are words filed in the database; no cut-off is given here.

Molecular target in the first assay: not listed separately
Description: Inhibition of Saccharomyces cerevisiae alpha-glucosidase.
By IC50 is commonly meant the concentration that gives 50% inhibition. Higher therefore signals weaker potency in that assay. In the case of `O=c1ccc2cc(OCCCCCCn3cc(COC[C@H]4O[C@H](OCc5cn(CCCCCCOc6ccc7oc(=O)ccc7c6)nn5)[C@H](OCc5ccccc5)[C@@H](OCc5ccccc5)[C@@H]4OCc4ccccc4)nn3)ccc2o1`, the half-inhibitory concentration (IC50) came to 21.7 µM. That is a double-digit micromolar value.

On to `Fc1ccc(Cn2cc(COC[C@H]3O[C@H](OCc4cn(Cc5ccc(F)cc5)nn4)[C@H](OCc4ccccc4)[C@@H](OCc4ccccc4)[C@@H]3OCc3ccccc3)nn2)cc1`, for which the 50% inhibitory concentration (IC50) is 37.3 µM.

On to `O=C(Cn1cc(COC[C@H]2O[C@H](OCc3cn(CC(=O)OCc4ccc([N+](=O)[O-])cc4)nn3)[C@H](OCc3ccccc3)[C@@H](OCc3ccccc3)[C@@H]2OCc2ccccc2)nn1)OCc1ccc([N+](=O)[O-])cc1`, for which the IC50 came to 5.68 µM.

Turning to `c1ccc(CO[C@@H]2[C@@H](OCc3ccccc3)[C@@H](OCc3cn(Cc4ccccc4)nn3)O[C@H](COCc3cn(Cc4ccccc4)nn3)[C@H]2OCc2ccccc2)cc1`, half-maximal inhibition (IC50) was put at 12.1 µM.

`Cc1ccc(OCCn2cc(COC[C@H]3O[C@H](OCc4cn(CCOc5ccc(C)cc5)nn4)[C@H](OCc4ccccc4)[C@@H](OCc4ccccc4)[C@@H]3OCc3ccccc3)nn2)cc1` displayed an IC50 of 50.5 µM.

`c1ccc(CO[C@@H]2[C@@H](OCc3ccccc3)[C@@H](OCc3cn(CCOc4ccccc4)nn3)O[C@H](COCc3cn(CCOc4ccccc4)nn3)[C@H]2OCc2ccccc2)cc1` returned an IC50 of 24.4 µM.

Take `CCCCCCCC/C=C\CCCCCCCCn1cc(COC[C@H]2O[C@H](OCc3cn(CCCCCCCC/C=C\CCCCCCCC)nn3)[C@H](OCc3ccccc3)[C@@H](OCc3ccccc3)[C@@H]2OCc2ccccc2)nn1`: inhibition was half-maximal at 14.1 µM (IC50).

As to `c1ccc(CO[C@@H]2[C@@H](OCc3ccccc3)[C@@H](OCc3cn(CCOc4cccc5ccccc45)nn3)O[C@H](COCc3cn(CCOc4cccc5ccccc45)nn3)[C@H]2OCc2ccccc2)cc1`, the midpoint of inhibition, the IC50, lay at 29.4 µM.

Take `C[C@H]1O[C@H](O[C@H]2[C@H](O)[C@@H](O)[C@@H](O[C@H]3[C@H](O)[C@@H](O)C(O)O[C@@H]3CO)O[C@@H]2CO)[C@H](O)[C@@H](O)[C@@H]1N[C@H]1C=C(CO)[C@@H](O)[C@H](O)[C@H]1O` (some centres undefined) [ACARBOSE]: the IC50 came out at 146 µM.

In the case of `COc1ccc(OC)c(Cn2cc(COC[C@H]3O[C@H](OCc4cn(Cc5cc(OC)ccc5OC)nn4)[C@H](OCc4ccccc4)[C@@H](OCc4ccccc4)[C@@H]3OCc3ccccc3)nn2)c1`, the IC50 came out at 3.86 µM.

Consider `CC(C)[C@@H]1CC[C@@H](C)C[C@H]1OC(=O)Cn1cc(COC[C@H]2O[C@H](OCc3cn(CC(=O)O[C@@H]4C[C@H](C)CC[C@H]4C(C)C)nn3)[C@H](OCc3ccccc3)[C@@H](OCc3ccccc3)[C@@H]2OCc2ccccc2)nn1`, for which the IC50 worked out at 3.73 µM. This IC50 and that of the compound before are within 1.5-fold of each other.

On to `O=[N+]([O-])c1cccc(Cn2cc(COC[C@H]3O[C@H](OCc4cn(Cc5cccc([N+](=O)[O-])c5)nn4)[C@H](OCc4ccccc4)[C@@H](OCc4ccccc4)[C@@H]3OCc3ccccc3)nn2)c1`, for which the half-inhibitory concentration (IC50) came out at 22.9 µM.

Regarding `O=[N+]([O-])c1ccc(Cn2cc(COC[C@H]3O[C@H](OCc4cn(Cc5ccc([N+](=O)[O-])cc5)nn4)[C@H](OCc4ccccc4)[C@@H](OCc4ccccc4)[C@@H]3OCc3ccccc3)nn2)cc1`, the IC50 was 53.3 µM. Against the preceding compound, the IC50 is about 2.3-fold higher.

`O=C1C=C(OCCCCCCn2cc(COC[C@H]3O[C@H](OCc4cn(CCCCCCOC5=CC(=O)Cc6ccccc65)nn4)[C@H](OCc4ccccc4)[C@@H](OCc4ccccc4)[C@@H]3OCc3ccccc3)nn2)c2ccccc2C1` had an IC50 of 20.8 µM.

The compound `O=C(Cn1cc(COC[C@H]2O[C@H](OCc3cn(CC(=O)Oc4cccc5ccccc45)nn3)[C@H](OCc3ccccc3)[C@@H](OCc3ccccc3)[C@@H]2OCc2ccccc2)nn1)Oc1cccc2ccccc12` showed an IC50 of 9.98 µM.

`c1ccc(CO[C@@H]2[C@@H](OCc3ccccc3)[C@@H](OCc3cn(CCOc4ccc5ccccc5c4)nn3)O[C@H](COCc3cn(CCOc4ccc5ccccc5c4)nn3)[C@H]2OCc2ccccc2)cc1`: half-maximal inhibition (IC50) was put at 13.9 µM.

For the next assay, the species on record is Homo sapiens. Description: Competitive inhibition of alpha-glucosidase (unknown origin) by kinetics based analysis.
For `CC(C)[C@@H]1CC[C@@H](C)C[C@H]1OC(=O)Cn1cc(COC[C@H]2O[C@H](OCc3cn(CC(=O)O[C@@H]4C[C@H](C)CC[C@H]4C(C)C)nn3)[C@H](OCc3ccccc3)[C@@H](OCc3ccccc3)[C@@H]2OCc2ccccc2)nn1`, the inhibition entry is “Active”.

In the next assay the test system is Saccharomyces cerevisiae. The experiment in a line: Potency index, ratio of acarbose IC50 to test compound IC50 for Saccharomyces cerevisiae alpha-glucosidase.
`CC(C)[C@@H]1CC[C@@H](C)C[C@H]1OC(=O)Cn1cc(COC[C@H]2O[C@H](OCc3cn(CC(=O)O[C@@H]4C[C@H](C)CC[C@H]4C(C)C)nn3)[C@H](OCc3ccccc3)[C@@H](OCc3ccccc3)[C@@H]2OCc2ccccc2)nn1`: the Ratio IC50 amounted to 39.

The next assay relates to Saccharomyces cerevisiae. Description: Inhibition of Saccharomyces cerevisiae alpha-glucosidase at 0.1 mg/ml.
`C=CCc1ccccc1OCCn1cc(COC[C@H]2O[C@H](OCc3cn(CCOc4ccccc4CC=C)nn3)[C@H](OCc3ccccc3)[C@@H](OCc3ccccc3)[C@@H]2OCc2ccccc2)nn1`: the inhibition result is “inactive”.

As for `C=CCCCCCCCCCn1cc(COC[C@H]2O[C@H](OCc3cn(CCCCCCCCCC=C)nn3)[C@H](OCc3ccccc3)[C@@H](OCc3ccccc3)[C@@H]2OCc2ccccc2)nn1`, the inhibition entry is “inactive”.

Take `CCCCCCCCCCCCCCCCCCn1cc(COC[C@H]2O[C@H](OCc3cn(CCCCCCCCCCCCCCCCCC)nn3)[C@H](OCc3ccccc3)[C@@H](OCc3ccccc3)[C@@H]2OCc2ccccc2)nn1`: the inhibition entry was “inactive”.

As for `COc1ccc(OC)c(COC(=O)Cn2cc(COC[C@H]3O[C@H](OCc4cn(CC(=O)OCc5cc(OC)ccc5OC)nn4)[C@H](OCc4ccccc4)[C@@H](OCc4ccccc4)[C@@H]3OCc3ccccc3)nn2)c1`, the inhibition entry is “inactive”.

`COc1cc(Cn2cc(COC[C@H]3O[C@H](OCc4cn(Cc5ccc(OCc6ccccc6)c(OC)c5)nn4)[C@H](OCc4ccccc4)[C@@H](OCc4ccccc4)[C@@H]3OCc3ccccc3)nn2)ccc1OCc1ccccc1`: the inhibition entry is “inactive”.

With `COc1cccc(Cn2cc(COC[C@H]3O[C@H](OCc4cn(Cc5cccc(OC)c5)nn4)[C@H](OCc4ccccc4)[C@@H](OCc4ccccc4)[C@@H]3OCc3ccccc3)nn2)c1`, the inhibition entry is “inactive”.

Consider `O=C(Cn1cc(COC[C@H]2O[C@H](OCc3cn(CC(=O)c4cc5ccccc5oc4=O)nn3)[C@H](OCc3ccccc3)[C@@H](OCc3ccccc3)[C@@H]2OCc2ccccc2)nn1)c1cc2ccccc2oc1=O`, for which the inhibition result is “inactive”.

Consider `O=C(Cn1cc(COC[C@H]2O[C@H](OCc3cn(CC(=O)OCc4ccccc4)nn3)[C@H](OCc3ccccc3)[C@@H](OCc3ccccc3)[C@@H]2OCc2ccccc2)nn1)OCc1ccccc1`, for which the inhibition entry is “inactive”.

Regarding `COc1cccc(COC(=O)Cn2cc(COC[C@H]3O[C@H](OCc4cn(CC(=O)OCc5cccc(OC)c5)nn4)[C@H](OCc4ccccc4)[C@@H](OCc4ccccc4)[C@@H]3OCc3ccccc3)nn2)c1`, the inhibition entry was “inactive”.

In the case of `CCCCCCCCCCCCCn1cc(COC[C@H]2O[C@H](OCc3cn(CCCCCCCCCCCCC)nn3)[C@H](OCc3ccccc3)[C@@H](OCc3ccccc3)[C@@H]2OCc2ccccc2)nn1`, the inhibition entry was “inactive”.

As to `COc1ccc(COC(=O)Cn2cc(COC[C@H]3O[C@H](OCc4cn(CC(=O)OCc5ccc(OC)cc5)nn4)[C@H](OCc4ccccc4)[C@@H](OCc4ccccc4)[C@@H]3OCc3ccccc3)nn2)cc1`, the inhibition entry was “inactive”.

Take `O=C(Cn1cc(COC[C@H]2O[C@H](OCc3cn(CC(=O)OC(c4ccccc4)c4ccccc4)nn3)[C@H](OCc3ccccc3)[C@@H](OCc3ccccc3)[C@@H]2OCc2ccccc2)nn1)OC(c1ccccc1)c1ccccc1`: the inhibition entry is “inactive”.

As to `Cc1cc(COC(=O)Cn2cc(COC[C@H]3O[C@H](OCc4cn(CC(=O)OCc5ccc(Cl)c(C)c5)nn4)[C@H](OCc4ccccc4)[C@@H](OCc4ccccc4)[C@@H]3OCc3ccccc3)nn2)ccc1Cl`, the inhibition entry was “inactive”.

As for `c1ccc(CCn2cc(COC[C@H]3O[C@H](OCc4cn(CCc5ccccc5)nn4)[C@H](OCc4ccccc4)[C@@H](OCc4ccccc4)[C@@H]3OCc3ccccc3)nn2)cc1`, the inhibition entry is “inactive”.

As for `COc1cc(COC(=O)Cn2cc(COC[C@H]3O[C@H](OCc4cn(CC(=O)OCc5ccc(OCc6ccccc6)c(OC)c5)nn4)[C@H](OCc4ccccc4)[C@@H](OCc4ccccc4)[C@@H]3OCc3ccccc3)nn2)ccc1OCc1ccccc1`, the inhibition entry is “inactive”.

In the case of `c1ccc(CO[C@@H]2[C@@H](OCc3ccccc3)[C@@H](OCc3cn(C(c4ccccc4)c4ccccc4)nn3)O[C@H](COCc3cn(C(c4ccccc4)c4ccccc4)nn3)[C@H]2OCc2ccccc2)cc1`, the inhibition entry was “inactive”.
